This note sets out measurements from patent US11427558B1, “Indazoles and azaindazoles as LRRK2 inhibitors” (ESCAPE Bio, Inc., priority 2019, dated 2022).

For orientation: IC50 means the concentration that inhibits the measured activity by half.

Experiment [1] deals with Recombinant wild type LRRK2 protein (Homo sapiens (Human), UniProt Q5S007). Briefly: LRRK2 kinase activity, LanthaScreen TR-FRET assay (wild type). Type of experiment: biochemical. The settings on record: LRRKtide 400 nM, 25 μM ATP, 60 min; read-out: LRRK2 WT IC50. In outline:
(§1)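 Recombinant human wild-type or G2019S LRRK2 phosphorylated fluorescein-labelled LRRKtide (ERM-based) with ATP and serially diluted compound for 60 min at room temperature.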
(Time-resolved FRET reads energy transfer from a long-lived donor to a nearby acceptor.)

Experiment [2] deals with Recombinant G2019S-LRRK2 protein (Homo sapiens (Human), UniProt Q5S007, G2019S). Briefly: LRRK2 kinase activity, LanthaScreen TR-FRET assay (G2019S). Type of experiment: biochemical. The settings on record: LRRKtide 400 nM, 25 μM ATP, 60 min. In outline: as §1
Sequence of Recombinant G2019S-LRRK2 protein (Q5S007 whole entry G2019S): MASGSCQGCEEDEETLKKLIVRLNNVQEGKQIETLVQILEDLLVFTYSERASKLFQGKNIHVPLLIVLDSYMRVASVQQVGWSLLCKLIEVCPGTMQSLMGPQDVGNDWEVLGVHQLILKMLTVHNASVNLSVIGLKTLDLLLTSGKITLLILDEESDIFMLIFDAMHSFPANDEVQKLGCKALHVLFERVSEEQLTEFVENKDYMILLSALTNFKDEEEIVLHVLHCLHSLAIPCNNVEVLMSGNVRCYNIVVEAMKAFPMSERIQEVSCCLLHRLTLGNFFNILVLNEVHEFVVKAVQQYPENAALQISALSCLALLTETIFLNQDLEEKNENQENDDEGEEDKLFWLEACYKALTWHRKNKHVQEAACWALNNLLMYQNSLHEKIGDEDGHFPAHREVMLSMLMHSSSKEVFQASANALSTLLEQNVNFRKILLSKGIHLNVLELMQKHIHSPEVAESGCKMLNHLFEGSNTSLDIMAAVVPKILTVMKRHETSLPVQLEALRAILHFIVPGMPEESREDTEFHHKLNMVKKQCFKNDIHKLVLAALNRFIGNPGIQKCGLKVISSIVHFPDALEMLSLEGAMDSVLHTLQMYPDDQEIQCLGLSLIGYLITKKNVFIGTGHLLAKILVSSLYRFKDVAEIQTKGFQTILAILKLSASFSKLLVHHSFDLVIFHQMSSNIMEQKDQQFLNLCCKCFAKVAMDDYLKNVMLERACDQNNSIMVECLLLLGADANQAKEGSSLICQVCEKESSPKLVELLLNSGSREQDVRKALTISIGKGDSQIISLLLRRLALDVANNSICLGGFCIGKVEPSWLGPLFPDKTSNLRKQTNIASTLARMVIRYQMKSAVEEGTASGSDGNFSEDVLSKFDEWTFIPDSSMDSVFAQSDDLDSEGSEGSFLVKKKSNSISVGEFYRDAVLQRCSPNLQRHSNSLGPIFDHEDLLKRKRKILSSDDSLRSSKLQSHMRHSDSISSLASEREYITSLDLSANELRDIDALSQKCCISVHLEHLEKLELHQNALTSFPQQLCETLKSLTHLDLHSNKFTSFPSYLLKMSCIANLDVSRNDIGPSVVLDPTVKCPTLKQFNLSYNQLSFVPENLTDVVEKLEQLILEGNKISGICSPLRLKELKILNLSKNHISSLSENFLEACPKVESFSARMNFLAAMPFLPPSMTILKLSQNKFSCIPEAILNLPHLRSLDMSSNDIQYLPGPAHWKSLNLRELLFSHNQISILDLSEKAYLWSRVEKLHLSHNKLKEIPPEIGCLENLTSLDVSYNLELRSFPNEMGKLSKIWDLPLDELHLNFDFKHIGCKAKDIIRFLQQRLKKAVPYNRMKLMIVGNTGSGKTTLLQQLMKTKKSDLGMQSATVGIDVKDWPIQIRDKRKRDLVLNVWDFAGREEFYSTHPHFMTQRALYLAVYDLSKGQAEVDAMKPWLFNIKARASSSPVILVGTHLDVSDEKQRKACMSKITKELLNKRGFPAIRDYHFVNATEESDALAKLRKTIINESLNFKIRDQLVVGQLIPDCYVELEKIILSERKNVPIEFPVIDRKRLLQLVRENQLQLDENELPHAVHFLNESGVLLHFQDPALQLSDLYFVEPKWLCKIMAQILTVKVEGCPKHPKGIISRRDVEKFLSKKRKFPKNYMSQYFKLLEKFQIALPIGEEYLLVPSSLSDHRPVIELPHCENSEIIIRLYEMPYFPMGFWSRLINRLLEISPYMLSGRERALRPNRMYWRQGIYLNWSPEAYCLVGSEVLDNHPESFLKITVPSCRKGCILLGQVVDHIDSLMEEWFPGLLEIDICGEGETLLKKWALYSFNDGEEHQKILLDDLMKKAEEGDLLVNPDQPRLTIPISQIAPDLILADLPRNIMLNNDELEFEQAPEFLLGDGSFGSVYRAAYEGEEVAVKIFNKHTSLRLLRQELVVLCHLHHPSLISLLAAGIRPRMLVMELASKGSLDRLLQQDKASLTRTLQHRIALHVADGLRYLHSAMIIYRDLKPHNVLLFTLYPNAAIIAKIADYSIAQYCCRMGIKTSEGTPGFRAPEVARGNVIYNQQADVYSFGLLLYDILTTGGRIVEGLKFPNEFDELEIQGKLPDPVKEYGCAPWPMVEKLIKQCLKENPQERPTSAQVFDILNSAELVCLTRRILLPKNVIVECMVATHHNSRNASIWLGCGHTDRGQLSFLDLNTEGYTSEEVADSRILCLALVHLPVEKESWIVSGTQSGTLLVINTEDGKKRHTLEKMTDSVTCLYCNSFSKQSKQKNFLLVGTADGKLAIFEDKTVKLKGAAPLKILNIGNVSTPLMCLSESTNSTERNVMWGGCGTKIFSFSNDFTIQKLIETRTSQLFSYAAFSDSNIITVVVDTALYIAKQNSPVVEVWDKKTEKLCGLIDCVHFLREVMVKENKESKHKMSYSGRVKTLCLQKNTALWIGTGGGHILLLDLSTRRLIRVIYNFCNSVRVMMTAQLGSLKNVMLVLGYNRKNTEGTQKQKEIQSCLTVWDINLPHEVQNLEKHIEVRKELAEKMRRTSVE

Sequence of Recombinant wild type LRRK2 protein (Q5S007 whole entry): as the sequence (Q5S007 whole entry G2019S) above, with S2019G counted along it

Regarding `Cc1c(C#N)cnc(C(=O)Nc2ccc3[nH]nc(C=C4CCN(C(=O)OC(C)(C)C)CC4)c3c2)c1C` [Example 259, tert-butyl 4-((5-(5-Cyano-3,4-dimethylpicolinamido)-1H-indazol-3-yl)methylene)piperidine-1-carboxylate], the IC50 in experiment [1] and in experiment [2] was greater than 10000 nM each time.

For `COc1cc(C#N)cc(C)c1C(=O)Nc1ccc2[nH]nc(-c3cnco3)c2c1` [Example 208, 4-Cyano-2-methoxy-6-methyl-N-(3-(oxazol-5-yl)-1H-indazol-5-yl)benzamide], the IC50 in experiment [1] and in experiment [2] was less than 100 nM throughout.

With `COc1cc(C(=O)Nc2ccc3[nH]nc(-c4cnco4)c3c2)nc(C)c1C#N` [Example 258, 5-Cyano-4-methoxy-6-methyl-N-(3-(oxazol-5-yl)-1H-indazol-5-yl)picolinamide], the IC50 in experiment [1] was 1000 to 10000 nM; in experiment [2] it was less than 100 nM.

For the molecule `Cc1c(C(=O)Nc2ccc3[nH]nc(-c4ccccc4)c3c2)cc(C#N)n1C` [Example 26, 5-Cyano-1,2-dimethyl-N-(3-phenyl-1H-indazol-5-yl)-1H-pyrrole-3-carboxamide], the IC50 is 100 to 1000 nM in experiment [1] and less than 100 nM in experiment [2].

`N#Cc1cc(C(=O)Nc2ccc3[nH]nc(-c4ccncc4)c3c2)ccn1` [Example 22, 2-Cyano-N-(3-(pyridin-4-yl)-1H-indazol-5-yl)isonicotinamide]: the IC50 in experiment [1] and in experiment [2] was less than 100 nM each time.

Consider `N#Cc1ccc(C(=O)Nc2ccc3[nH]nc(-c4ccoc4)c3c2)c(I)c1` [Example 4, 4-Cyano-N-(3-(furan-3-yl)-1H-indazol-5-yl)-2-iodobenzamide], for which the IC50 in experiment [1] and in experiment [2] was less than 100 nM in each case.

For the molecule `Cc1c(C(=O)Nc2ccc3[nH]nc(Br)c3c2)nc(Cl)c(C#N)c1C` [Example 324, N-(3-Bromo-1H-indazol-5-yl)-6-chloro-5-cyano-3,4-dimethylpicolinamide], the IC50 in experiment [1] and in experiment [2] was less than 100 nM each time.

Take `Cc1cc(C#N)cnc1C(=O)Nc1ccc2[nH]nc(-c3ccncc3)c2c1` [Example 31, 5-Cyano-3-methyl-N-(3-(pyridin-4-yl)-1H-indazol-5-yl)picolinamide]: the IC50 in experiment [1] is 100 to 1000 nM; in experiment [2] it was less than 100 nM.

As to `N#Cc1cnc(C(=O)Nc2ccc3[nH]nc(-c4cnoc4)c3c2)c(Cl)c1` [Example 309, 3-Chloro-5-cyano-N-(3-(isoxazol-4-yl)-1H-indazol-5-yl)picolinamide], the IC50 in experiment [1] and in experiment [2] was less than 100 nM throughout.

Take `Cc1c(C#N)cccc1C(=O)Nc1cc(C)c2[nH]nc(-c3ccoc3)c2c1` [Example 88, 3-cyano-N-(3-(furan-3-yl)-7-methyl-1H-indazol-5-yl)-2-methylbenzamide]: the IC50 in experiment [1] fell in the range of 1000 to 10000 nM; in experiment [2] it was 100 to 1000 nM.

As to `Cc1cc(C#N)c(C)nc1C(=O)Nc1ccc2[nH]nc(-c3ccoc3)c2c1` [Example 44, 5-Cyano-N-(3-(furan-3-yl)-1H-indazol-5-yl)-3,6-dimethylpicolinamide], the half-inhibitory concentration (IC50) in experiment [1] and in experiment [2] was less than 100 nM in each case.

Consider `Cc1cc(C#N)cnc1C(=O)Nc1ccc2[nH]nc(-c3ccnc(N4C[C@H](C)C[C@H](C)C4)c3)c2c1` [Example 117, 5-Cyano-N-(3-(2-((3R,5S)-3,5-dimethylpiperidin-1-yl)pyridin-4-yl)-1H-indazol-5-yl)-3-methylpicolinamide], for which the figures for the IC50 in experiment [1] and in experiment [2] were 100 to 1000 nM and less than 100 nM, respectively.

Take “2-Chloro-3-cyano-N-(3-(1-(difluoromethyl)-1H-pyrazol-3-yl)-1H-indazol-5-yl)benzamide [Example 166]”: the IC50 in experiment [1] and in experiment [2] was less than 100 nM each time.

With `Cc1c(C(=O)Nc2ccc3[nH]nc(Cl)c3c2)nc(Cl)c(C#N)c1C` [Example 320, 6-Chloro-N-(3-chloro-1H-indazol-5-yl)-5-cyano-3,4-dimethylpicolinamide], the IC50 in experiment [1] and in experiment [2] was less than 100 nM throughout.

With `Cc1ccc(C#N)c(C)c1C(=O)Nc1ccc2[nH]nc(-c3cnn(C(F)F)c3)c2c1` [Example 193, 3-Cyano-N-(3-(1-(difluoromethyl)-1H-pyrazol-4-yl)-1H-indazol-5-yl)-2,6-dimethylbenzamide], the IC50 in experiment [1] and in experiment [2] was less than 100 nM throughout.

On to `Cc1cc(C#N)cnc1C(=O)Nc1ccc2[nH]nc(-c3cncc(C#N)c3)c2c1` [Example 42, 5-Cyano-N-(3-(5-cyanopyridin-3-yl)-1H-indazol-5-yl)-3-methylpicolinamide], for which the figures for the IC50 in experiment [1] and in experiment [2] were 100 to 1000 nM and less than 100 nM, respectively.

For `Cc1c(C#N)cnc(C(=O)Nc2ccc3[nH]nc(-c4cnn(C(F)F)c4)c3c2)c1C` [Example 157, 5-Cyano-N-(3-(1-(difluoromethyl)-1H-pyrazol-4-yl)-1H-indazol-5-yl)-3,4-dimethylpicolinamide], the IC50 in experiment [1] and in experiment [2] was less than 100 nM in each case.

For the molecule `CSc1n[nH]c2ccc(NC(=O)c3nc(Cl)c(C#N)c(C)c3C)cc12` [Example 317, 6-Chloro-5-cyano-3,4-dimethyl-N-(3-(methylthio)-1H-indazol-5-yl)picolinamide], the IC50 in experiment [1] and in experiment [2] was less than 100 nM each time.

On to `Cc1c(C(=O)Nc2ccc3[nH]nc(C4CC4)c3c2)nc(C2CC2)c(C#N)c1C` [Example 334, 5-Cyano-6-cyclopropyl-N-(3-cyclopropyl-1H-indazol-5-yl)-3,4-dimethylpicolinamide], for which the IC50 in experiment [1] was 100 to 1000 nM; in experiment [2], less than 100 nM.

Consider `N#Cc1cccc(C(=O)Nc2ccc3[nH]nc(-c4ccoc4)c3c2)n1` [Example 127, 6-Cyano-N-(3-(furan-3-yl)-1H-indazol-5-yl)picolinamide], for which the IC50 in experiment [1] and in experiment [2] was less than 100 nM each time.

Consider `Cc1nccc(-c2n[nH]c3ccc(NC(=O)c4ncc(C#N)c(C)c4C)cc23)n1` [Example 237, 5-Cyano-3,4-dimethyl-N-(3-(2-methylpyrimidin-4-yl)-1H-indazol-5-yl)picolinamide], for which the IC50 in experiment [1] and in experiment [2] was less than 100 nM throughout.

For `CCc1c(C#N)ccc(F)c1C(=O)Nc1ccc2[nH]nc(-c3cnco3)c2c1` [Example 231, 3-Cyano-2-ethyl-6-fluoro-N-(3-(oxazol-5-yl)-1H-indazol-5-yl)benzamide], the IC50 in experiment [1] and in experiment [2] was less than 100 nM throughout.

`Cc1c(C(=O)Nc2ccc3[nH]nc(C)c3c2)nc(Cl)c(C#N)c1C` [Example 298, 6-Chloro-5-cyano-3,4-dimethyl-N-(3-methyl-1H-indazol-5-yl)picolinamide]: the IC50 in experiment [1] and in experiment [2] was less than 100 nM in each case.

With `Cc1c(C#N)cnc(C(=O)Nc2ccc3[nH]nc(-c4cnn(CF)c4)c3c2)c1C` [Example 172, 5-Cyano-N-(3-(1-(fluoromethyl)-1H-pyrazol-4-yl)-1H-indazol-5-yl)-3,4-dimethylpicolinamide], the IC50 in experiment [1] and in experiment [2] was less than 100 nM throughout.

Consider `Cc1c(C#N)cnc(C(=O)Nc2ccc3[nH]nc(-c4ccn(C)c4)c3c2)c1C` [Example 186, 5-cyano-3,4-dimethyl-N-(3-(1-methyl-1H-pyrrol-3-yl)-1H-indazol-5-yl)picolinamide], for which the IC50 in experiment [1] and in experiment [2] was less than 100 nM throughout.

Turning to `N#Cc1cnc(C(=O)Nc2ccc3[nH]nc(-c4ccoc4)c3c2)c2sccc12` [Example 116, 4-Cyano-N-(3-(furan-3-yl)-1H-indazol-5-yl)thieno[2,3-c]pyridine-7-carboxamide], the IC50 in experiment [1] was in the range of 1000 to 10000 nM; in experiment [2] it was 100 to 1000 nM.

For `Cc1cc(C(=O)Nc2ccc3[nH]nc(-c4ccoc4)c3c2)nc(C)c1C#N` [Example 85, 5-cyano-N-(3-(furan-3-yl)-1H-indazol-5-yl)-4,6-dimethylpicolinamide], the IC50 in experiment [1] is 1000 to 10000 nM; in experiment [2], less than 100 nM.

Consider `Cc1ccc(C#N)c(F)c1C(=O)Nc1ccc2[nH]nc(-c3cnco3)c2c1` [Example 203, 3-Cyano-2-fluoro-6-methyl-N-(3-(oxazol-5-yl)-1H-indazol-5-yl)benzamide], for which the IC50 in experiment [1] and in experiment [2] was less than 100 nM each time.

For `N#Cc1cccc(C(=O)Nc2ccc3[nH]nc(-c4ccoc4)c3c2)c1Br` [Example 89, 2-bromo-3-cyano-N-(3-(furan-3-yl)-1H-indazol-5-yl)benzamide], the IC50 in experiment [1] and in experiment [2] was less than 100 nM in each case.

Take `Cc1cc(C#N)cnc1C(=O)Nc1ccc2[nH]nc(-c3cncc(N4CCOCC4)c3)c2c1` [Example 37, 5-Cyano-3-methyl-N-(3-(5-morpholinopyridin-3-yl)-1H-indazol-5-yl)picolinamide]: the IC50 in experiment [1] is 100 to 1000 nM; in experiment [2], less than 100 nM.

Turning to `Cc1cc(C#N)cnc1C(=O)Nc1ccc2[nH]nc(-c3cccc(C(F)(F)F)c3)c2c1` [Example 59, 5-Cyano-3-methyl-N-(3-(3-(trifluoromethyl)phenyl)-1H-indazol-5-yl)picolinamide], the figures for the IC50 in experiment [1] and in experiment [2] were 100 to 1000 nM and less than 100 nM, respectively.

`Cc1ccc(C#N)cc1C(=O)Nc1ccc2[nH]nc(-c3ccoc3)c2c1` [Example 17, 5-Cyano-N-(3-(furan-3-yl)-1H-indazol-5-yl)-2-methylbenzamide]: the IC50 in experiment [1] and in experiment [2] was less than 100 nM throughout.

For the molecule `Cc1c(C(=O)Nc2ccc3[nH]nc(C4CC4)c3c2)nc(C(F)F)c(C#N)c1C` [Example 327, 5-Cyano-N-(3-cyclopropyl-1H-indazol-5-yl)-6-(difluoromethyl)-3,4-dimethylpicolinamide], the IC50 in experiment [1] and in experiment [2] was less than 100 nM each time.

In the case of `Cc1n[nH]c(C#N)c1C(=O)Nc1ccc2[nH]nc(-c3ccoc3)c2c1` [Example 137, 5-Cyano-N-(3-(furan-3-yl)-1H-indazol-5-yl)-3-methyl-1H-pyrazole-4-carboxamide], the concentration for half-maximal inhibition (IC50) in experiment [1] and in experiment [2] was less than 100 nM in each case.
